Measured values from patent US20250129069A1, “TRIAZOLO WRN INHIBITORS” (Nimbus Wadjet, Inc., priority 2023, published 2025).

Tests used:
[1] = target: human Werner helicase (WRN, amino acids 517-1235 with L1074F point mutation) (Homo sapiens (Human), UniProt Q14191, L1074F); assay: WRN (BV08) ADP-Glo assay; format: biochemical; conditions: human WRN (aa 517-1235, L1074F), read-out: ADP-Glo_hWRN_IC50
In short: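 ADP-Glo luminescence read after 60 min, 25 °C reaction of 0.15 nM WRN (517-1235, L1074F, Sf9-expressed, tag removed) with 0.1 nM DNA duplex and 5 μM ATP, following 15 min compound preincubation; 20 mM Bicine pH 7.5, 1% DMSO. IC50 from 3- or 4-parameter fit of % inhibition.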

[2] = test system: p21 induction in HCT 116 cells; assay: p21 induction in cells (In-Cell Western, p21/GAPDH ratio); format: cell-based; conditions: Homo sapiens, 24 h compound incubation, read-out: p21_EC50
In short: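 EC50 values come from nonlinear fits of percent activation, defined by the 800/700 nm p21-to-GAPDH ratio scaled between DMSO (low) and internal WRN inhibitor (high) controls. In-Cell Western read after 24 h compound exposure of HCT 116 cells at 37° C. Duplicate 11-point series, 2-fold steps, usually starting at 10 μM.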

Chain of human Werner helicase (WRN, amino acids 517-1235 with L1074F point mutation) (Q14191 other isoform, or with tags, fused parts or gaps L1074F (already in the parent)): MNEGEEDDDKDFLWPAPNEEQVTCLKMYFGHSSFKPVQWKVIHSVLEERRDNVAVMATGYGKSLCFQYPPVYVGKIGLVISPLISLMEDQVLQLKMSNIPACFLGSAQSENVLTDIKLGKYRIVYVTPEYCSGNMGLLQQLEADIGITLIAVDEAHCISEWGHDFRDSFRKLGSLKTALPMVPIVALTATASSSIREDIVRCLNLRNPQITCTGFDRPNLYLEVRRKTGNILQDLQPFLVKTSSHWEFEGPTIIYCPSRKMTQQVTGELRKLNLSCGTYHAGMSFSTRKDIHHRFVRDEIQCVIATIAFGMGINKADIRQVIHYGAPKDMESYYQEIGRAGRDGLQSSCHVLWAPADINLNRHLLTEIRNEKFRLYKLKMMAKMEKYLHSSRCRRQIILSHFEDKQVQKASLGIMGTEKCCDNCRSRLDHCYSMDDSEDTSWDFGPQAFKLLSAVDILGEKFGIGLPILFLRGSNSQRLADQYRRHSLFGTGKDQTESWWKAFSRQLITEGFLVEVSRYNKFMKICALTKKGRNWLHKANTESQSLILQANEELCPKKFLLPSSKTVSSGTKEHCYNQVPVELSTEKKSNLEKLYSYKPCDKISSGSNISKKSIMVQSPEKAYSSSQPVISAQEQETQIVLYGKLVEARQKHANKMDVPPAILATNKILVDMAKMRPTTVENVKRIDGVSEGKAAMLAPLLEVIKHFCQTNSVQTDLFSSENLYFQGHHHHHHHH

Row | Compound | IC50 [1] [nM] | EC50 [2] [nM]
1 | CCc1c(N2CCN(C(=O)c3ncnc(C)c3O)[C@H]3CC[C@@H]32)c(=O)c2nn(-c3ccn(C)n3)nc2n1CC(=O)NC12CC(C(C)C)(C1)C2 [Compound I-187, 2-{5-ethyl-6-[(1S,6S)-5-(5-hydroxy-6-methylpyrimidine-4-carbonyl)-2,5-diazabicyclo[4.2.0]octan-2-yl]-2-(1-methyl-1H-pyrazol-3-yl)-7-oxo-2H,4H,7H-[1,2,3]triazolo[4,5-b]pyridin-4-yl}-N-[3-(propan-2-yl)bicyclo[1.1.1]pentan-1-yl]acetamide] | 5 to 50 | ≤ 500
2 | CCc1c(N2CCN(C(=O)c3ncnc(C)c3O)[C@H]3CC[C@@H]32)c(=O)c2nn(C3CC3(F)F)nc2n1CC(=O)Nc1ccc(C(F)(F)F)cc1Cl (stereo partly drawn) [Compound I-189, N-[2-chloro-4-(trifluoromethyl)phenyl]-2-[2-(2,2-difluorocyclopropyl)-5-ethyl-6-[(1S,6S)-5-(5-hydroxy-6-methylpyrimidine-4-carbonyl)-2,5-diazabicyclo[4.2.0]octan-2-yl]-7-oxo-2H,4H,7H-[1,2,3]triazolo[4,5-b]pyridin-4-yl]acetamide] | ≤ 5 | ≤ 500
3 | CCc1c(N2CCN(C(=O)c3c(OC)ccnc3OC)[C@H]3CC[C@@H]32)c(=O)c2nn(C3=CCOCC3)nc2n1CC(=O)NC12CC(C(C)C)(C1)C2 [Compound I-191, 2-[2-(3,6-dihydro-2H-pyran-4-yl)-6-[(1S,6S)-5-(2,4-dimethoxypyridine-3-carbonyl)-2,5-diazabicyclo[4.2.0]octan-2-yl]-5-ethyl-7-oxo-2H,4H,7H-[1,2,3]triazolo[4,5-b]pyridin-4-yl]-N-[3-(propan-2-yl)bicyclo[1.1.1]pentan-1-yl]acetamide] | 5 to 50 | ≤ 500
4 | CCc1c(N2CCN(C(=O)c3ncnc(C)c3O)[C@H]3CC[C@@H]32)c(=O)c2nn(-c3ccnc(OC)c3)nc2n1CC(=O)NC12CC(C3CCCC3)(C1)C2 [Compound I-195, N-{3-cyclopentylbicyclo[1.1.1]pentan-1-yl}-2-{5-ethyl-6-[(1S,6S)-5-(5-hydroxy-6-methylpyrimidine-4-carbonyl)-2,5-diazabicyclo[4.2.0]octan-2-yl]-2-(2-methoxypyridin-4-yl)-7-oxo-2H,4H,7H-[1,2,3]triazolo[4,5-b]pyridin-4-yl}acetamide] | ≤ 5 | ≤ 500
5 | CCc1c(N2CCN(C(=O)c3nccnc3OC)[C@H]3CC[C@@H]32)c(=O)c2nn(C3=CCOCC3)nc2n1CC(=O)NC12CC(C(C)C)(C1)C2 [Compound I-200, 2-[2-(3,6-dihydro-2H-pyran-4-yl)-5-ethyl-6-[(1S,6S)-5-(3-methoxypyrazine-2-carbonyl)-2,5-diazabicyclo[4.2.0]octan-2-yl]-7-oxo-2H,4H,7H-[1,2,3]triazolo[4,5-b]pyridin-4-yl]-N-[3-(propan-2-yl)bicyclo[1.1.1]pentan-1-yl]acetamide] | 5 to 50 | ≤ 500
6 | CCc1c(N2CCN(C(=O)c3cncnc3OC)[C@H]3CC[C@@H]32)c(=O)c2nn(C3=CCOCC3)nc2n1CC(=O)NC12CC(C(C)C)(C1)C2 [Compound I-201, 2-[2-(3,6-dihydro-2H-pyran-4-yl)-5-ethyl-6-[(1S,6S)-5-(4-methoxypyrimidine-5-carbonyl)-2,5-diazabicyclo[4.2.0]octan-2-yl]-7-oxo-2H,4H,7H-[1,2,3]triazolo[4,5-b]pyridin-4-yl]-N-[3-(propan-2-yl)bicyclo[1.1.1]pentan-1-yl]acetamide] | 5 to 50 | ≤ 500
7 | CCc1c(N2CCN(C(=O)c3ncnc(C)c3O)[C@H]3CC[C@@H]32)c(=O)c2nn(C3CC3)nc2n1CC(=O)NC12CC(C3CC3)(C1)C2 [Compound I-202, 2-{2-cyclopropyl-5-ethyl-6-[(1S,6S)-5-(5-hydroxy-6-methylpyrimidine-4-carbonyl)-2,5-diazabicyclo[4.2.0]octan-2-yl]-7-oxo-2H,4H,7H-[1,2,3]triazolo[4,5-b]pyridin-4-yl}-N-{3-cyclopropylbicyclo[1.1.1]pentan-1-yl}acetamide] | 5 to 50 | 500 to 2000

Other lines, results leading:

Row | IC50 [1] [nM] | EC50 [2] [nM] | Compound
8 | 5 to 50 | 500 to 2000 | CCc1c(N2CCN(C(=O)c3ccccn3)[C@H]3CC[C@@H]32)c(=O)c2nn(C3=CCOCC3)nc2n1CC(=O)NC12CC(C(C)C)(C1)C2 [Compound I-184, 2-[2-(3,6-dihydro-2H-pyran-4-yl)-5-ethyl-7-oxo-6-[(1S,6S)-5-(pyridine-2-carbonyl)-2,5-diazabicyclo[4.2.0]octan-2-yl]-2H,4H,7H-[1,2,3]triazolo[4,5-b]pyridin-4-yl]-N-[3-(propan-2-yl)bicyclo[1.1.1]pentan-1-yl]acetamide]
9 | 5 to 50 | 500 to 2000 | CCc1c(N2CCN(C(=O)c3cc(N4CCC(C)(O)C4)cnc3OC)[C@H]3CC[C@@H]32)c(=O)c2nn(C3=CCOCC3)nc2n1CC(=O)NC12CC(C3CC3)(C1)C2 (stereo partly drawn) [Compound I-186, N-{3-cyclopropylbicyclo[1.1.1]pentan-1-yl}-2-[2-(3,6-dihydro-2H-pyran-4-yl)-5-ethyl-6-[(1S,6S)-5-[5-(3-hydroxy-3-methylpyrrolidin-1-yl)-2-methoxypyridine-3-carbonyl]-2,5-diazabicyclo[4.2.0]octan-2-yl]-7-oxo-2H,4H,7H-[1,2,3]triazolo[4,5-b]pyridin-4-yl]acetamide]
10 | 5 to 50 | ≤ 500 | CCc1c(N2CCN(C(=O)c3c(OC)nc(C(F)F)c(C)c3O)[C@H]3CC[C@@H]32)c(=O)c2nn(C3=CCOCC3)nc2n1CC(=O)NC12CC(C3CC3)(C1)C2 [Compound I-190, N-{3-cyclopropylbicyclo[1.1.1]pentan-1-yl}-2-{6-[(1S,6S)-5-[6-(difluoromethyl)-4-hydroxy-2-methoxy-5-methylpyridine-3-carbonyl]-2,5-diazabicyclo[4.2.0]octan-2-yl]-2-(3,6-dihydro-2H-pyran-4-yl)-5-ethyl-7-oxo-2H,4H,7H-[1,2,3]triazolo[4,5-b]pyridin-4-yl}acetamide]
11 | 5 to 50 | 500 to 2000 | CCc1c(N2CCN(C(=O)c3c(N)ncnc3OC)[C@H]3CC[C@@H]32)c(=O)c2nn(C3=CCOCC3)nc2n1CC(=O)NC12CC(C3CC3)(C1)C2 [Compound I-193, 2-{6-[(1S,6S)-5-(4-amino-6-methoxypyrimidine-5-carbonyl)-2,5-diazabicyclo[4.2.0]octan-2-yl]-2-(3,6-dihydro-2H-pyran-4-yl)-5-ethyl-7-oxo-2H,4H,7H-[1,2,3]triazolo[4,5-b]pyridin-4-yl}-N-{3-cyclopropylbicyclo[1.1.1]pentan-1-yl}acetamide]
12 | 5 to 50 | ≤ 500 | CCc1c(N2CCN(C(=O)c3cccnc3OC)[C@H]3CC[C@@H]32)c(=O)c2nn(C3=CCOCC3)nc2n1CC(=O)NC12CC(C(C)C)(C1)C2 [Compound I-198, 2-[2-(3,6-dihydro-2H-pyran-4-yl)-5-ethyl-6-[(1S,6S)-5-(2-methoxypyridine-3-carbonyl)-2,5-diazabicyclo[4.2.0]octan-2-yl]-7-oxo-2H,4H,7H-[1,2,3]triazolo[4,5-b]pyridin-4-yl]-N-[3-(propan-2-yl)bicyclo[1.1.1]pentan-1-yl]acetamide]
13 | 5 to 50 | ≤ 500 | CCc1c(N2CCN(C(=O)c3cccc4oc(=O)[nH]c34)[C@H]3CC[C@@H]32)c(=O)c2nn(C3=CCOCC3)nc2n1CC(=O)NC12CC(C(C)C)(C1)C2 [Compound I-199, 2-[2-(3,6-dihydro-2H-pyran-4-yl)-5-ethyl-7-oxo-6-[(1S,6S)-5-(2-oxo-2,3-dihydro-1,3-benzoxazole-4-carbonyl)-2,5-diazabicyclo[4.2.0]octan-2-yl]-2H,4H,7H-[1,2,3]triazolo[4,5-b]pyridin-4-yl]-N-[3-(propan-2-yl)bicyclo[1.1.1]pentan-1-yl]acetamide]
14 | 5 to 50 | 500 to 2000 | CCc1c(N2CCN(C(=O)c3cnccc3OC)[C@H]3CC[C@@H]32)c(=O)c2nn(C3=CCOCC3)nc2n1CC(=O)NC12CC(C(C)C)(C1)C2 [Compound I-203, 2-[2-(3,6-dihydro-2H-pyran-4-yl)-5-ethyl-6-[(1S,6S)-5-(4-methoxypyridine-3-carbonyl)-2,5-diazabicyclo[4.2.0]octan-2-yl]-7-oxo-2H,4H,7H-[1,2,3]triazolo[4,5-b]pyridin-4-yl]-N-[3-(propan-2-yl)bicyclo[1.1.1]pentan-1-yl]acetamide]
15 | 5 to 50 | 500 to 2000 | CCc1c(N2CCN(C(=O)c3ncccc3OC)[C@H]3CC[C@@H]32)c(=O)c2nn(C3=CCOCC3)nc2n1CC(=O)NC12CC(C(C)C)(C1)C2 [Compound I-204, 2-[2-(3,6-dihydro-2H-pyran-4-yl)-5-ethyl-6-[(1S,6S)-5-(3-methoxypyridine-2-carbonyl)-2,5-diazabicyclo[4.2.0]octan-2-yl]-7-oxo-2H,4H,7H-[1,2,3]triazolo[4,5-b]pyridin-4-yl]-N-[3-(propan-2-yl)bicyclo[1.1.1]pentan-1-yl]acetamide]
16 | 5 to 50 | 500 to 2000 | CCc1c(N2CCN(C(=O)c3cccc4c3OCCN4C)[C@H]3CC[C@@H]32)c(=O)c2nn(C3=CCOCC3)nc2n1CC(=O)NC12CC(C3CC3)(C1)C2 [Compound I-205, N-{3-cyclopropylbicyclo[1.1.1]pentan-1-yl}-2-[2-(3,6-dihydro-2H-pyran-4-yl)-5-ethyl-6-[(1S,6S)-5-(4-methyl-3,4-dihydro-2H-1,4-benzoxazine-8-carbonyl)-2,5-diazabicyclo[4.2.0]octan-2-yl]-7-oxo-2H,4H,7H-[1,2,3]triazolo[4,5-b]pyridin-4-yl]acetamide]
